{"source": "PubChem BioAssay AID1745844", "about": "(Carcinogenic Potency Database (CPDB), 2022)", "tested_on": "rodent lifetime carcinogenesis bioassay, tumor incidence TD50", "experiment": "carcinogenic potency in animals, long-term in vivo studies, CPDB compilation (AID 1745844)", "note": "Activity calls are given as the source filed them. The rule behind the calls is not given here.", "data": [{"smiles": "CCc1nc(N)nc(N)c1-c1ccc(Cl)cc1", "values": [{"measurement": "TD50", "setting": "mouse, strain B6C3F1, females, in feed, site: any site (literature study), lesion: several types, types named in the paper, dosed 78 weeks, study length 104 weeks", "result": "315 mg/kg/day (inactive)"}, {"measurement": "TD50", "setting": "mouse, strain B6C3F1, females, in feed, site: lung, lesion: alveolar/bronchiolar adenoma + alveolar/bronchiolar carcinoma, dosed 78 weeks, study length 104 weeks", "result": 405, "unit": "mg/kg/day"}, {"measurement": "TD50", "setting": "mouse, strain B6C3F1, males, in feed, site: any site (literature study), lesion: several types, types named in the paper, dosed 78 weeks, study length 104 weeks", "result": 419, "unit": "mg/kg/day"}, {"measurement": "TD50", "setting": "rat, strain Fischer 344, females, in feed, site: any site (literature study), lesion: several types, types named in the paper, dosed 78 weeks, study length 104 weeks", "result": "27.8 mg/kg/day (inactive)"}, {"measurement": "carcinogen call", "setting": "rat, strain Fischer 344, males, in feed, site: any site (literature study), lesion: several types, types named in the paper, dosed 78 weeks, study length 104 weeks", "result": "negative (inactive)"}]}, {"smiles": "O=S(=O)(O)c1c(N=Nc2c(O)ccc3ccccc23)ccc2ccccc12", "values": [{"measurement": "carcinogen call", "setting": "rat, strain Osborne-Mendel, females, in feed, site: liver, lesion: adenoma, dosed 105 weeks, study length 105 weeks", "result": "negative (inactive)"}, {"measurement": "TD50", "setting": "rat, strain Osborne-Mendel, females, in feed, site: pituitary gland, lesion: adenoma, dosed 105 weeks, study length 105 weeks", "result": "3560 mg/kg/day (inactive)"}, {"measurement": "carcinogen call", "setting": "rat, strain Osborne-Mendel, males, in feed, site: liver, lesion: hepatocellular adenoma, dosed 105 weeks, study length 105 weeks", "result": "negative (inactive)"}]}, {"smiles": "C[C@@H]1CCC[C@H](C)N1CCCC(O)(c1ccccc1)c1ccccn1", "note": "(stereo partly drawn)", "values": [{"measurement": "TD50", "setting": "mouse, strain B6C3F1, females, in feed, site: all sites, lesion: lymphoma, dosed 104 weeks, study length 104 weeks", "result": "94.6 mg/kg/day (inactive)"}, {"measurement": "carcinogen call", "setting": "mouse, strain B6C3F1, females, in feed, site: any site (literature study), lesion: several types, types named in the paper, dosed 104 weeks, study length 104 weeks", "result": "negative (inactive)"}, {"measurement": "TD50", "setting": "mouse, strain B6C3F1, females, in feed, site: liver, lesion: hepatocellular adenoma, dosed 104 weeks, study length 104 weeks", "result": "1560 mg/kg/day (inactive)"}, {"measurement": "TD50", "setting": "mouse, strain B6C3F1, females, in feed, site: liver, lesion: hepatocellular carcinoma, dosed 104 weeks, study length 104 weeks", "result": "978 mg/kg/day (inactive)"}, {"measurement": "TD50", "setting": "mouse, strain B6C3F1, females, in feed, site: lung, lesion: adenoma, dosed 104 weeks, study length 104 weeks", "result": "1980 mg/kg/day (inactive)"}, {"measurement": "carcinogen call", "setting": "mouse, strain B6C3F1, females, in feed, site: lung, lesion: carcinoma, dosed 104 weeks, study length 104 weeks", "result": "negative (inactive)"}, {"measurement": "carcinogen call", "setting": "mouse, strain B6C3F1, males, in feed, site: any site (literature study), lesion: several types, types named in the paper, dosed 104 weeks, study length 104 weeks", "result": "negative (inactive)"}, {"measurement": "carcinogen call", "setting": "mouse, strain B6C3F1, males, in feed, site: liver, lesion: hepatocellular adenoma, dosed 104 weeks, study length 104 weeks", "result": "negative (inactive)"}, {"measurement": "carcinogen call", "setting": "mouse, strain B6C3F1, males, in feed, site: liver, lesion: hepatocellular carcinoma, dosed 104 weeks, study length 104 weeks", "result": "negative (inactive)"}, {"measurement": "TD50", "setting": "mouse, strain B6C3F1, males, in feed, site: lung, lesion: adenoma, dosed 104 weeks, study length 104 weeks", "result": "947 mg/kg/day (inactive)"}, {"measurement": "TD50", "setting": "mouse, strain B6C3F1, males, in feed, site: lung, lesion: carcinoma, dosed 104 weeks, study length 104 weeks", "result": "4040 mg/kg/day (inactive)"}, {"measurement": "TD50", "setting": "rat, strain Wistar, females, in feed, site: any site (literature study), lesion: several types, types named in the paper, dosed 104 weeks, study length 104 weeks", "result": "440 mg/kg/day (inactive)"}, {"measurement": "carcinogen call", "setting": "rat, strain Wistar, females, in feed, site: liver, lesion: one or several types, types not named, dosed 104 weeks, study length 104 weeks", "result": "negative (inactive)"}, {"measurement": "TD50", "setting": "rat, strain Wistar, females, in feed, site: pituitary gland, lesion: adenoma, dosed 104 weeks, study length 104 weeks", "result": "15.9 mg/kg/day (inactive)"}, {"measurement": "TD50", "setting": "rat, strain Wistar, males, in feed, site: adrenal gland, lesion: cortical adenoma, dosed 104 weeks, study length 104 weeks", "result": "104 mg/kg/day (inactive)"}, {"measurement": "carcinogen call", "setting": "rat, strain Wistar, males, in feed, site: any site (literature study), lesion: several types, types named in the paper, dosed 104 weeks, study length 104 weeks", "result": "negative (inactive)"}, {"measurement": "carcinogen call", "setting": "rat, strain Wistar, males, in feed, site: liver, lesion: one or several types, types not named, dosed 104 weeks, study length 104 weeks", "result": "negative (inactive)"}]}, {"smiles": "COc1ccc([C@@H]2CC(=O)c3c(O)cc(O[C@@H]4O[C@H](CO[C@@H]5O[C@@H](C)[C@H](O)[C@@H](O)[C@H]5O)[C@@H](O)[C@H](O)[C@H]4O)cc3O2)cc1OC", "values": [{"measurement": "carcinogen call", "setting": "mouse, strain B6C3F1, females, in feed, site: liver, lesion: hemangioma, dosed 96 weeks, study length 104 weeks", "result": "negative (inactive)"}, {"measurement": "TD50", "setting": "mouse, strain B6C3F1, females, in feed, site: liver, lesion: hemangiosarcoma, dosed 96 weeks, study length 104 weeks", "result": "887000 mg/kg/day (inactive)"}, {"measurement": "TD50", "setting": "mouse, strain B6C3F1, females, in feed, site: liver, lesion: hepatocellular carcinoma, dosed 96 weeks, study length 104 weeks", "result": "194000 mg/kg/day (inactive)"}, {"measurement": "TD50", "setting": "mouse, strain B6C3F1, females, in feed, site: liver, lesion: hyperplastic nodule, dosed 96 weeks, study length 104 weeks", "result": "379000 mg/kg/day (inactive)"}, {"measurement": "carcinogen call", "setting": "mouse, strain B6C3F1, females, in feed, site: lung, lesion: adenoma, dosed 96 weeks, study length 104 weeks", "result": "negative (inactive)"}, {"measurement": "carcinogen call", "setting": "mouse, strain B6C3F1, males, in feed, site: liver, lesion: hemangioma, dosed 96 weeks, study length 104 weeks", "result": "negative (inactive)"}, {"measurement": "TD50", "setting": "mouse, strain B6C3F1, males, in feed, site: liver, lesion: hepatocellular carcinoma, dosed 96 weeks, study length 104 weeks", "result": "146000 mg/kg/day (inactive)"}, {"measurement": "TD50", "setting": "mouse, strain B6C3F1, males, in feed, site: liver, lesion: hyperplastic nodule, dosed 96 weeks, study length 104 weeks", "result": "416000 mg/kg/day (inactive)"}, {"measurement": "carcinogen call", "setting": "mouse, strain B6C3F1, males, in feed, site: lung, lesion: adenocarcinoma, dosed 96 weeks, study length 104 weeks", "result": "negative (inactive)"}, {"measurement": "carcinogen call", "setting": "mouse, strain B6C3F1, males, in feed, site: lung, lesion: adenoma, dosed 96 weeks, study length 104 weeks", "result": "negative (inactive)"}]}, {"smiles": "CN(C)CCOc1ccc(/C(=C(/CCCl)c2ccccc2)c2ccccc2)cc1", "values": [{"measurement": "carcinogen call", "setting": "rat, strain Charles River CD (Sprague-Dawley), females, by gavage, site: liver, lesion: hepatocellular adenoma, dosed 52 weeks, study length 52 weeks", "result": "negative (inactive)"}, {"measurement": "carcinogen call", "setting": "rat, strain Charles River CD (Sprague-Dawley), females, by gavage, site: liver, lesion: hepatocellular adenoma, dosed 52 weeks, study length 65 weeks", "result": "negative (inactive)"}, {"measurement": "carcinogen call", "setting": "rat, strain Charles River CD (Sprague-Dawley), females, by gavage, site: liver, lesion: hepatocellular carcinoma, dosed 52 weeks, study length 52 weeks", "result": "negative (inactive)"}, {"measurement": "carcinogen call", "setting": "rat, strain Charles River CD (Sprague-Dawley), females, by gavage, site: liver, lesion: hepatocellular carcinoma, dosed 52 weeks, study length 65 weeks", "result": "negative (inactive)"}, {"measurement": "carcinogen call", "setting": "rat, strain Sprague-Dawley, females, by gavage, site: liver, lesion: one or several types, types not named, dosed 52 weeks, study length 52 weeks", "result": "negative (inactive)"}, {"measurement": "carcinogen call", "setting": "rat, strain Sprague-Dawley, females, by gavage, site: liver, lesion: one or several types, types not named, dosed 52 weeks, study length 65 weeks", "result": "negative (inactive)"}, {"measurement": "carcinogen call", "setting": "rat, strain Sprague-Dawley, females, by gavage, site: liver, lesion: several types, types named in the paper, dosed 52 weeks, study length 52 weeks", "result": "negative (inactive)"}, {"measurement": "carcinogen call", "setting": "rat, strain Sprague-Dawley, females, by gavage, site: liver, lesion: several types, types named in the paper, dosed 52 weeks, study length 65 weeks", "result": "negative (inactive)"}, {"measurement": "TD50", "setting": "rat, strain Sprague-Dawley, females, in feed, site: liver, lesion: hepatocellular adenoma, dosed 104 weeks, study length 104 weeks", "result": "344 mg/kg/day (inactive)"}, {"measurement": "carcinogen call", "setting": "rat, strain Sprague-Dawley, females, in feed, site: liver, lesion: hepatocellular carcinoma, dosed 104 weeks, study length 104 weeks", "result": "negative (inactive)"}, {"measurement": "carcinogen call", "setting": "rat, strain Sprague-Dawley, females, in feed, site: mammary gland, lesion: one or several types, types not named, dosed 104 weeks, study length 104 weeks", "result": "negative (inactive)"}, {"measurement": "carcinogen call", "setting": "rat, strain Sprague-Dawley, females, in feed, site: pituitary gland, lesion: one or several types, types not named, dosed 104 weeks, study length 104 weeks", "result": "negative (inactive)"}, {"measurement": "carcinogen call", "setting": "rat, strain Sprague-Dawley, males, in feed, site: liver, lesion: hepatocellular adenoma, dosed 104 weeks, study length 104 weeks", "result": "negative (inactive)"}, {"measurement": "TD50", "setting": "rat, strain Sprague-Dawley, males, in feed, site: liver, lesion: hepatocellular carcinoma, dosed 104 weeks, study length 104 weeks", "result": "1040 mg/kg/day (inactive)"}, {"measurement": "carcinogen call", "setting": "rat, strain Sprague-Dawley, males, in feed, site: mammary gland, lesion: one or several types, types not named, dosed 104 weeks, study length 104 weeks", "result": "negative (inactive)"}, {"measurement": "carcinogen call", "setting": "rat, strain Sprague-Dawley, males, in feed, site: pituitary gland, lesion: one or several types, types not named, dosed 104 weeks, study length 104 weeks", "result": "negative (inactive)"}, {"measurement": "carcinogen call", "setting": "rat, strain Sprague-Dawley, males, in feed, site: testis, lesion: one or several types, types not named, dosed 104 weeks, study length 104 weeks", "result": "negative (inactive)"}]}, {"smiles": "O=CC(O)C(O)C(O)C(O)CO", "note": "(stereo not drawn)", "values": [{"measurement": "carcinogen call", "setting": "mouse, strain AP Alderly Park, females, in feed, site: any site (literature study), lesion: several types, types named in the paper, dosed 100 weeks, study length 100 weeks", "result": "negative (inactive)"}, {"measurement": "TD50", "setting": "mouse, strain AP Alderly Park, females, in feed, site: liver, lesion: hepatoma, dosed 100 weeks, study length 100 weeks", "result": "538000 mg/kg/day (inactive)"}, {"measurement": "carcinogen call", "setting": "mouse, strain AP Alderly Park, females, in feed, site: lung, lesion: adenoma, dosed 100 weeks, study length 100 weeks", "result": "negative (inactive)"}, {"measurement": "TD50", "setting": "mouse, strain AP Alderly Park, males, in feed, site: any site (literature study), lesion: several types, types named in the paper, dosed 100 weeks, study length 100 weeks", "result": "132000 mg/kg/day (inactive)"}, {"measurement": "carcinogen call", "setting": "mouse, strain AP Alderly Park, males, in feed, site: liver, lesion: hepatoma, dosed 100 weeks, study length 100 weeks", "result": "negative (inactive)"}, {"measurement": "carcinogen call", "setting": "mouse, strain AP Alderly Park, males, in feed, site: lung, lesion: adenoma, dosed 100 weeks, study length 100 weeks", "result": "negative (inactive)"}, {"measurement": "TD50", "setting": "rat, strain AP Alderly Park, females, in feed, site: any site (literature study), lesion: several types, types named in the paper, dosed 104 weeks, study length 104 weeks", "result": "7790 mg/kg/day (inactive)"}, {"measurement": "carcinogen call", "setting": "rat, strain AP Alderly Park, females, in feed, site: liver, lesion: one or several types, types not named, dosed 104 weeks, study length 104 weeks", "result": "negative (inactive)"}, {"measurement": "carcinogen call", "setting": "rat, strain AP Alderly Park, males, in feed, site: any site (literature study), lesion: several types, types named in the paper, dosed 104 weeks, study length 104 weeks", "result": "negative (inactive)"}, {"measurement": "TD50", "setting": "rat, strain AP Alderly Park, males, in feed, site: liver, lesion: hepatoma, dosed 104 weeks, study length 104 weeks", "result": "133000 mg/kg/day (inactive)"}]}, {"smiles": "ClCOCCCCOCCl", "values": [{"measurement": "carcinogen call", "setting": "mouse, strain Ha/ICR, females, i.p., site: abdomen, lesion: sarcoma, dosed 81 weeks, study length 81 weeks", "result": "negative (inactive)"}]}]}
